From PubChem BioAssay AID256 (DTP/NCI, 2004) come the findings set out here.

“And” between values parts separate entries of the source, which are not always exact repeats. Identical values can stand only once. Inconclusive results and toxic doses are left out.

For this test, the system named is CD2F1 mice, L1210 leukemia ip, survival T/C. As to the kind of experiment: NCI In Vivo Anticancer Drug Screen. Data for tumor model L1210 Leukemia (intraperitoneal) in CD2F1 (CDF1) mice. Particulars: endpoint: mean survival time, higher = longer survival. The procedure, abridged:
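Mice carrying a transplanted tumor received test compound or vehicle alone. The value is the measurement in the treated group divided by that in the vehicle-treated control group.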

Setting [1] is: dose: 50.0 mg/kg/injection, schedule: Q01DX009 (ip), vehicle: saline with Tween-80.
[2] abbreviates: dose: 100.0 mg/kg/injection, schedule: Q01DX009 (ip), vehicle: saline with Tween-80.
Setting [3] is: dose: 100.0 mg/kg/injection, schedule: Q04DX003 (ip), vehicle: saline with Tween-80.
Setting [4] is: dose: 200.0 mg/kg/injection, schedule: Q04DX003 (ip), vehicle: saline with Tween-80.

Turning to `[O-]c1cc2c3c(c1)c1cc4c(cc1c[n+]3C=C2)OCO4`, the T/C was 100 % of control (dose: 3.13 mg/kg/injection, schedule: Q01DX009 (ip), vehicle: other); 114 % of control (dose: 3.13 mg/kg/injection, schedule: Q01DX009 (ip), vehicle: water); 109 % of control (dose: 6.25 mg/kg/injection, schedule: Q01DX009 (ip), vehicle: other); 120 % of control and 122 % of control (dose: 6.25 mg/kg/injection, schedule: Q01DX009 (ip), vehicle: water); 110 % of control (dose: 12.5 mg/kg/injection, schedule: Q01DX009 (ip), vehicle: other); 124 % of control (dose: 12.5 mg/kg/injection, schedule: Q01DX009 (ip), vehicle: water). Moreover, the T/C is 118 % of control (dose: 25.0 mg/kg/injection, schedule: Q01DX009 (ip), vehicle: other); 150 % of control (dose: 25.0 mg/kg/injection, schedule: Q01DX009 (ip), vehicle: water); 115 % of control (dose: 50.0 mg/kg/injection, schedule: Q01DX009 (ip), vehicle: water); 124 % of control (dose: 100.0 mg/kg/injection, schedule: Q01DX009 (ip), vehicle: water).
For `Cc1cc(NC(=O)NCc2ccc(N3C(N)=NC(N)=NC3(C)C)cc2)ccc1S(=O)(=O)F`, the T/C reads like this: (dose: 12.5 mg/kg/injection, schedule: Q01DX009 (ip), vehicle: saline with Tween-80) 101 % of control; (dose: 25.0 mg/kg/injection, schedule: Q01DX009 (ip), vehicle: saline with Tween-80) 106 % of control; under setting [1], 104 % of control; under setting [2], 123 % of control.
In the case of `CO[C@]12[C@@H](COC(N)=O)C3=C(C(=O)C(C)=C(NCc4ccco4)C3=O)N1C[C@@H]1[C@H]2N1C` (stereo partly drawn), the T/C (dose: 1.5 mg/kg/injection, schedule: Q01DX001 (ip), vehicle: distilled water + Tween-80) is 104 % of control; the T/C (dose: 3.0 mg/kg/injection, schedule: Q01DX001 (ip), vehicle: distilled water + Tween-80) was 103 % of control and 104 % of control; the T/C (dose: 6.0 mg/kg/injection, schedule: Q01DX001 (ip), vehicle: distilled water + Tween-80) was 110 % of control and 111 % of control; the T/C (dose: 12.0 mg/kg/injection, schedule: Q01DX001 (ip), vehicle: distilled water + Tween-80) is 122 % of control; the T/C (dose: 36.0 mg/kg/injection, schedule: Q01DX001 (ip), vehicle: distilled water + Tween-80) is 121 % of control.
As for `C=CCn1c2ccccc2c2c(C)c3cnccc3c(C)c21`, the T/C was 96 % of control and 102 % of control (dose: 25.0 mg/kg/injection, schedule: Q04DX003 (ip), vehicle: saline with Tween-80); 100 % of control and 102 % of control (dose: 50.0 mg/kg/injection, schedule: Q04DX003 (ip), vehicle: saline with Tween-80); 103 % of control and 104 % of control under setting [3]; 113 % of control and 116 % of control under setting [4].
Take `CCCCCC#CC(=O)OC`: the T/C runs as follows: under setting [1], 95 % of control; under setting [2], 104 % of control; under setting [3], 94 % of control; (dose: 200.0 mg/kg/injection, schedule: Q01DX009 (ip), vehicle: saline with Tween-80) 103 % of control; under setting [4], 96 % of control.
Consider `CC12CCC(OC3CCCCO3)CC1=CCC1C2CCC2(C)C1CCC2(O)CCN` (stereo not drawn), for which the T/C by setting is: (dose: 6.25 mg/kg/injection, schedule: Q01DX005 (ip), vehicle: other) 100 % of control; (dose: 12.5 mg/kg/injection, schedule: Q01DX005 (ip), vehicle: other) 97 % of control; (dose: 15.6 mg/kg/injection, schedule: Q01DX001 (ip), vehicle: Klucel (hydroxypropylcellulose) (HPC)) 104 % of control; (dose: 31.2 mg/kg/injection, schedule: Q01DX001 (ip), vehicle: Klucel (hydroxypropylcellulose) (HPC)) 96 % of control; (dose: 62.5 mg/kg/injection, schedule: Q01DX001 (ip), vehicle: Klucel (hydroxypropylcellulose) (HPC)) 98 % of control.
For the compound `CC(=O)OC1(C)CC(C)(C)N=N1` (stereo not drawn), the T/C is 97 % of control (dose: 25.0 mg/kg/injection, schedule: Q01DX009 (ip), vehicle: Klucel (hydroxypropylcellulose) (HPC)); 99 % of control (dose: 50.0 mg/kg/injection, schedule: Q01DX009 (ip), vehicle: Klucel (hydroxypropylcellulose) (HPC)); 97 % of control (dose: 100.0 mg/kg/injection, schedule: Q01DX009 (ip), vehicle: Klucel (hydroxypropylcellulose) (HPC)); 97 % of control (dose: 200.0 mg/kg/injection, schedule: Q01DX009 (ip), vehicle: Klucel (hydroxypropylcellulose) (HPC)); 97 % of control (dose: 400.0 mg/kg/injection, schedule: Q01DX009 (ip), vehicle: Klucel (hydroxypropylcellulose) (HPC)).
